According to US8884027B2, “Melampomagnolide B derivatives as antileukemic and cytotoxic agents” (University of Rochester, priority 2010, dated 2014):
Entries after “also recorded” stand apart in the source; their conditions may differ.

How the values were obtained:
NF-kB p65 subunit = target: T1, NF-kB p65 subunit (Homo sapiens, UniProt Q04206); assay: Streptavidin beads pull-down assay with immunoblot; assay type: binding; details: 2 h pretreatment before 4; FIG. 5 lane 5
T1 construct: endogenous in cells; host or cells: primary leukemia (AML) cells
T1 sequence (Q04206 whole entry): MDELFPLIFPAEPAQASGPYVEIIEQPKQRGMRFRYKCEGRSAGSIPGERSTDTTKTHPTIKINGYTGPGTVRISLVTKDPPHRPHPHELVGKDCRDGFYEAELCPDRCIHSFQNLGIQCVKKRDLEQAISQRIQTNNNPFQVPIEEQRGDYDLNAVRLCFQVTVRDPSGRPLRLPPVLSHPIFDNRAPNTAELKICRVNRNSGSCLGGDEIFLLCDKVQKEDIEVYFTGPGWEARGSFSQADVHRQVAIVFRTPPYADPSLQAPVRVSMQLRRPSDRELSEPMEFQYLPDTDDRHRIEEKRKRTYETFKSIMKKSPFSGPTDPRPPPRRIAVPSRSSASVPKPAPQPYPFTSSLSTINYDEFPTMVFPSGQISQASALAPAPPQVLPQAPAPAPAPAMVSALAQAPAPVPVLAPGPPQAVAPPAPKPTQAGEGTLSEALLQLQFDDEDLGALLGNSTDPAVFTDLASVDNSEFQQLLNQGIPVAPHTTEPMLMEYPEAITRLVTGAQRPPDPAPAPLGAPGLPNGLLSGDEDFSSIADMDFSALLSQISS
Description: Primary human cells were treated with 20 uM 4 for 6 h, followed by lysis and immunoblot analysis using a streptavidin probe. […] Therefore, we tested whether 4 would also bind this protein. […] Cells were then lysed and immuno-precipitated by streptavidin beads. Pulldown products were analyzed by immunoblot to identify specific proteins.
Treated cells were washed three times in cold PBS and lysed in Buffer F (10 mM Tris-HCl pH 7.5, 50 mM NaCl, 30 mM Sodium pyrophosphate, 50 mM NaF, 5 μM ZnCl2, 1% Triton X-100) with freshly added proteinase inhibitors (1 mM PMSF, 1×PIC, 0.1 mM Na3OV4). Lysates were cleared by 10 mins of 12,000 rpm spinning at 4° C. and the supernatant was incubated with SA beads for 2 hours on an end-to-end rotor at 4° C. Beads were then washed sequentially with 1×PBS, high salt wash buffer (500 mM NaCl in 0.1 M pH 5.0 NaOAc), low pH wash buffer (0.1 M pH 2.8 glycine-HCl), and one last time in 1×PBS. After the wash steps, the SA beads were boiled for 10 mins in 2×SDS-PAGE sample buffer to elute down all pull-down products.
Cell lysates or pull-down products were diluted in 5×SDS-PAGE sample buffer (10% w/v SDS, 10 mM DDT, 20% glycerol, 0.2M Tris-HCl, pH 6.8, 0.05% w/v bromophenol blue), and run on 8-10% SDSPAGE gels. […]

glutathione = assay: Metabolomic studies of glutathione; assay type: cell-based
Source text: For example, both thioredoxin and glutathione-S-transferase are targets of MMB. […] Furthermore, MMB also directly binds the major components of the HSP family (HSP60, 70, and 90). […] If true, then MMB could also impair the function of one or more HSPs. Taken together with the genomic data, these findings indicate a unique mechanism of action, where agents of this class act by inducing multiple stress response mechanisms and simultaneously impairing those very same mechanisms from functioning properly.

IKK-β = target: T2, IKK-β (Homo sapiens, UniProt O14920); assay: Streptavidin beads pull-down assay with immunoblot; assay type: binding
T2 construct: endogenous in cells; host or cells: primary leukemia (AML) cells
T2 sequence (O14920 1-756): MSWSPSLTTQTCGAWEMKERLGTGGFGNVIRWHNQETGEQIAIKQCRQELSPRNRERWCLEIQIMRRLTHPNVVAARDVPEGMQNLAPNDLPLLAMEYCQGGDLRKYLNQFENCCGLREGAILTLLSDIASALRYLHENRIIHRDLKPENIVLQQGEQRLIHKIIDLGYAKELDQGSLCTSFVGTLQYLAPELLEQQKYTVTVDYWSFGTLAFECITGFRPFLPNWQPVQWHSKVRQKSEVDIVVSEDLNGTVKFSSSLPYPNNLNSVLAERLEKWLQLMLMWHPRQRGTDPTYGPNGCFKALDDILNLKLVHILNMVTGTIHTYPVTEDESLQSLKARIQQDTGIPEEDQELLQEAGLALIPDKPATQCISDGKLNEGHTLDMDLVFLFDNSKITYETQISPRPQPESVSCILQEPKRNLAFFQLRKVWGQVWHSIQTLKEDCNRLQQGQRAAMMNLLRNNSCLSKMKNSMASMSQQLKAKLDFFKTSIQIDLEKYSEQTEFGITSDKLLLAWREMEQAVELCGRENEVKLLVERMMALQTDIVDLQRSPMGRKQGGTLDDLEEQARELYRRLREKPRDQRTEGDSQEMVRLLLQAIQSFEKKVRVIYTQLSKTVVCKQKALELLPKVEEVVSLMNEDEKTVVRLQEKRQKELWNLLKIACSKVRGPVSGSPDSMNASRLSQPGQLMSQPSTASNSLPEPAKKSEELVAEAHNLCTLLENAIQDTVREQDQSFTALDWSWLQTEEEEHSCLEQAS
Description: Subsequent studies employed 4 as a reagent to identify potential leukemic proteins modified by MMB. Primary human cells were treated with 20 uM 4 for 6 h, followed by lysis and immunoblot analysis using a streptavidin probe. […] Thus, while the chemistry of 4 should be essentially the same in any cell type, there must be intrinsic differences between normal and leukemic cells that lead to the interaction with unique targets. We propose that this differential binding contributes to the leukemia-specific cell death previously described for 1. To further validate the utility of 4 for analysis of protein targets, we performed biochemical pulldown studies. […] Kwok et al. Chem. Bio., 2001, 8, 759. Therefore, we tested whether 4 would also bind this protein. In FIG. 5, primary leukemia cells were pretreated for 2 h with 1 (lanes 2, 5) or biotin control (b.c.) (lanes 3, 6), prior to a 4 h incubation with 4. Cells were then lysed and immuno-precipitated by streptavidin beads. Pulldown products were analyzed by immunoblot to identify specific proteins. […] Kwok et al., Chem. Bio., 2001, 8, 759; Hehner et al., J. Immunol. 1999, 163, 5617.
Treated cells were washed three times in cold PBS and lysed in Buffer F (10 mM Tris-HCl pH 7.5, 50 mM NaCl, 30 mM Sodium pyrophosphate, 50 mM NaF, 5 μM ZnCl2, 1% Triton X-100) with freshly added proteinase inhibitors (1 mM PMSF, 1×PIC, 0.1 mM Na3OV4). […]

[1] = cited from earlier work
[2] = tested on: NF-κB p65 subunit at Ser-536; assay: Inhibition of NF-κB activity: immunoblot of phosphorylated p65 in primary leukemia cells; assay type: cell-based, human; details: primary leukemia cells treated six hours, FIG. 3A
Description: (§1) Primary leukemia cells were treated with varying concentrations of 1, 3 or 4 for six hours, followed by lysis and analysis by immunoblot. Inhibition of NF-κB activity was assessed by measuring phosphorylation of the NF-κB p65 subunit at Ser-536. […] To further evaluate the cytoxicity of 3 and 4, cell viability was measured following 24 h exposure to each compound. […] To achieve a similar degree of cell death with 4, treatment at 20-30 μM was required, in good agreement with the NF-κB phosphorylation analysis shown in FIG. 3A. Thus, while 3 and 4 retain the biological properties of 1, the activity of 4 is reduced approximately 2-fold. The minor loss in activity might be attributed to steric hindrance resulting from the addition of the bulky biotin moiety.
Cell lysates or pull-down products were diluted in 5×SDS-PAGE sample buffer (10% w/v SDS, 10 mM DDT, 20% glycerol, 0.2M Tris-HCl, pH 6.8, 0.05% w/v bromophenol blue), and run on 8-10% SDSPAGE gels. Protein gels were then transferred to PVDF membrane and blocked with 5% milk in 0.1% TBST (20 mM Tris-HCl pH 7.5, 137 mM NaCl, 0.1% Tween 20), followed by incubation with antibodies against p-p65(ser 536) (Cell Signaling), IKK-β (Cell Signaling), p65 (Santa Cruz), β-actin (Sigma), or SA-HRP probe (Thermo).

primary leukemia cells = assay: Cell viability assay (Annexin V/7-AAD flow cytometry); assay type: cell-based, human; details: for concentration achieving efficient induction of cell death: 24 h exposure, FIG. 3B; for anti-leukemia activity compared to PTL (in words): primary AML specimens, FIG. 2
Description: as §1
Cells treated with different concentrations of 1, 3 or 4 were washed with cold PBS and resuspended in 200 μL of Annexin binding buffer (10 mM HEPES/NaOH pH 7.4; 140 mM NaCl; 2.5 mM CaCl2). Annexin-V and 7-amino-actinomycin (7-AAD) were added and the tubes were incubated at ambient temperature in the dark for 15 mins. Cells were then diluted with 200 μL of Annexin binding buffer and analyzed immediately by flow cytometry. Viable cells were scored as Annexin V negative/7-AAD negative. Percent viability data provided are normalized to untreated control specimens.

[3] = rats and dogs, cited from earlier work
[4] = cited from earlier work; remark: listed apart in the source
Water solubility = assay type: physicochemical
Description: Detailed SAR studies of PTL were performed to better understand the basic chemistry required to mediate anti-leukemia activity. […] In biological systems, the consequences of this reactivity are most prevalent for free thiols and cysteine residues. […] A series of PTL analogs was previously prepared with the goal of creating a more therapeutically useful derivative (Neelakantan et al., 2009). […] In addition, DMAPT retains virtually identical anti-leukemia properties as PTL, including the ability to selectively target LSCs. […] Based on these findings, DMAPT has advanced to phase 1 clinical trials, and is currently being evaluated in patients with advanced hematologic malignancies. DMAPT and certain PTL analogs are disclosed in U.S. Pat. Nos. 7,312,242 and 7,678,904, each of which is incorporated herein by reference.
The predicted poor oral bioavailability likely results from low aqueous solubility, since this causes a low dissolution-rate, which is often the rate-limit step during oral drug absorption. Fleisher et al., Improved oral drug delivery: solubility limitations overcome by the use of prodrugs. Adv Drug Deliv Rev, 19:115-130, 1996; Taylor, Improved passive oral drug delivery via prodrugs. Adv Drug Deliv Rev, 19:131-148, 1996. Furthermore, low water solubility can itself be a source of toxicity, due to precipitation of the drug, causing crystalluria. […]

In the case of C=C1C(=O)O[C@H]2[C@H]1CC/C(C)=C/CC[C@@]1(C)O[C@@H]21 [PTL, parthenolide], the “effect of preincubation on binding of p65 to 4” value (NF-kB p65 subunit) is reported as “potently reduced binding”, the reduction of glutathione (glutathione) is reported as 11.2 fold and the “effect of preincubation on binding of IKK-β to 4” value (IKK-β; 2 h pretreatment before 4, FIG. 5 lane 5) is reported as “potently reduced binding”. For the same compound, the “water solubility (in words)” value [1] was “relatively water-insoluble”.
With C=C1C(=O)O[C@@H]2[C@H]3O[C@]3(C)CC/C=C(\COC(=O)CCCCCCCCCCCNC(=O)CCCC[C@@H]3SC[C@@H]4NC(=O)N[C@@H]43)CC[C@@H]12 [Prodrug 4, 14-[N-(Biotinyl)-12-aminododecanoxy]melampomagnolide B] the “concentration at which a significant loss of phosphorylation of NF-κB p65 is observed” value [2] was 20 µM, the “binding of IKK-β in pull-down” value (IKK-β; primary leukemia cells, 4 h incubation with 4, FIG. 5) was “one product identified was IKK-β” and the “concentration achieving efficient induction of cell death” value (primary leukemia cells) was 20 to 30 µM. For the same compound, the “reduction of activity relative to 1” value (primary leukemia cells; from viability and NF-κB phosphorylation analysis) was “approximately 2 fold”.
For C/C1=C\CC[C@@]2(C)O[C@@H]2[C@H]2OC(=O)[C@H](CN(C)C)[C@@H]2CC1 [DMAPT, dimethylaminoparthenolide], the oral bioavailability [3] is listed as 70%, the tolerability ([3]; doses resulting in serum concentrations of up to 10-fold excess of the biologically active concentration) is listed as “well tolerated” and the “water solubility relative to PTL” value ([1]; formulated as a fumarate salt) is listed as about 1000 fold. For the same compound, the in vivo half-life [4] was “approximately two”.
With C=C1C(=O)O[C@@H]2[C@H]3O[C@]3(C)CC/C=C(\CO)CC[C@@H]12 [MMB, Melampomagnolide B] the “concentration at which a significant loss of phosphorylation of NF-κB p65 is observed” value [2] was 7.5 µM, the “solubility in aqueous media (in words)” value (Water solubility) was “sparingly soluble” and the “concentration achieving efficient induction of cell death” value (primary leukemia cells) was 7.5 µM. For the same compound, the “anti-leukemia activity compared to PTL (in words)” value (primary leukemia cells) was “indistinguishable from PTL; also recorded: identical anti-leukemia activity compared to PTL” and the “anti-leukemia activity compared to PTL (in words)” value (primary leukemia cells; listed as 3) was “potency and selectivity similar to 1”.
